Like-named read-outs stand apart in the source and are kept apart here.
Key:
Assay in all cases: biochemical
Set-up in all cases: Eurofins KinaseProfiler full panel at Km ATP, residual kinase activity (%) relative to DMSO
[1] = target: T1, Bmx(h) (Homo sapiens, UniProt P51813)
T1 sequence (P51813 1-675): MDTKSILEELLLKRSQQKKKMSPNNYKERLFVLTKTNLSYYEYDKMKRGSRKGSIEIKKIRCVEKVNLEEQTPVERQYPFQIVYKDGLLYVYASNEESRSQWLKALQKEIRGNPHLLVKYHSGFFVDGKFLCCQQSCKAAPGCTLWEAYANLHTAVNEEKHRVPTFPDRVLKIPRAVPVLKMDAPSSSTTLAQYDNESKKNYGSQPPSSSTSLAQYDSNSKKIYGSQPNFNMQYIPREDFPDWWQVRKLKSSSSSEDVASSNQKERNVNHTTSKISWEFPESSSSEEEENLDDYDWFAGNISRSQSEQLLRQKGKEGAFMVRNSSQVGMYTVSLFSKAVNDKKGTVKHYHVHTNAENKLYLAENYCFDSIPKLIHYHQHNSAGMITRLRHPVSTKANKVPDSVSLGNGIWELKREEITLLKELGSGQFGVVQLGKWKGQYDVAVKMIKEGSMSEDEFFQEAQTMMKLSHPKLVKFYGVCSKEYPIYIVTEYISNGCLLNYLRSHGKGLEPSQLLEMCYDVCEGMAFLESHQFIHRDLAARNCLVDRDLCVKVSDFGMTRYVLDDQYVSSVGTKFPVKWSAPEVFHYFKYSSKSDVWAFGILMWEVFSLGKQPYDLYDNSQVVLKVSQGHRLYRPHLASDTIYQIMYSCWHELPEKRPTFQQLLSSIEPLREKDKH
In short: (§1)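 Two 10 µM single-concentration screens were run: a competition-binding screen, in which DNA-tagged kinase bound to immobilized ligands was quantified by qPCR, and a radiometric activity panel at Km ATP. Each is expressed as residual kinase activity (%).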

[2] = target: T2, ZAK(h) (Homo sapiens, UniProt Q9NYL2)
T2 construct: gene MAP3K20
In short: as §1

[3] = target: T3, Haspin(h) (Homo sapiens, UniProt Q8TF76)
T3 sequence (Q8TF76 1-798): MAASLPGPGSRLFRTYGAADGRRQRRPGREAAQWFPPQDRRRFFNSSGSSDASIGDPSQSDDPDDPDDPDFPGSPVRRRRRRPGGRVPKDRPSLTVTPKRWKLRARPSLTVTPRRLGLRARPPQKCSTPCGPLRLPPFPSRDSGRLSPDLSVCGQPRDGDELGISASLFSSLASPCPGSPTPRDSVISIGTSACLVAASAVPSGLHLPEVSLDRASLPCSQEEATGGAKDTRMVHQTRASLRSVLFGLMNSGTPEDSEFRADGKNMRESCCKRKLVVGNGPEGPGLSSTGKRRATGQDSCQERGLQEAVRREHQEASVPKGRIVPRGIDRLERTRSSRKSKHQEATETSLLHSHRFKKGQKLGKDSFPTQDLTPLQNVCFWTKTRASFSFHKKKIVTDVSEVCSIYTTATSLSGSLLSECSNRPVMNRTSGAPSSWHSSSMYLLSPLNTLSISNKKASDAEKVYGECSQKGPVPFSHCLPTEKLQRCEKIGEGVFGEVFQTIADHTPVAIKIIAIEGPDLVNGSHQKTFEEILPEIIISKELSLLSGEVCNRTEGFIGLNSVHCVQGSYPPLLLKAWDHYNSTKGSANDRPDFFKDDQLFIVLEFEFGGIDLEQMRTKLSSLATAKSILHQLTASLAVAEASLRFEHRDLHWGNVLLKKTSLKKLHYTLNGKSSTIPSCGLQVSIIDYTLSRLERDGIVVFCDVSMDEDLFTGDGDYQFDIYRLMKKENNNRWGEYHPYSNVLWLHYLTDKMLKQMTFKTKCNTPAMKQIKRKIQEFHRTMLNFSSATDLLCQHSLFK
In short: as §1

[4] = target: T4, TrkB(h) (Homo sapiens, UniProt Q16620)
T4 construct: gene NTRK2
In short: as §1

[5] = target: T5, Txk(h) (Homo sapiens, UniProt P42681)
T5 sequence (P42681 1-527): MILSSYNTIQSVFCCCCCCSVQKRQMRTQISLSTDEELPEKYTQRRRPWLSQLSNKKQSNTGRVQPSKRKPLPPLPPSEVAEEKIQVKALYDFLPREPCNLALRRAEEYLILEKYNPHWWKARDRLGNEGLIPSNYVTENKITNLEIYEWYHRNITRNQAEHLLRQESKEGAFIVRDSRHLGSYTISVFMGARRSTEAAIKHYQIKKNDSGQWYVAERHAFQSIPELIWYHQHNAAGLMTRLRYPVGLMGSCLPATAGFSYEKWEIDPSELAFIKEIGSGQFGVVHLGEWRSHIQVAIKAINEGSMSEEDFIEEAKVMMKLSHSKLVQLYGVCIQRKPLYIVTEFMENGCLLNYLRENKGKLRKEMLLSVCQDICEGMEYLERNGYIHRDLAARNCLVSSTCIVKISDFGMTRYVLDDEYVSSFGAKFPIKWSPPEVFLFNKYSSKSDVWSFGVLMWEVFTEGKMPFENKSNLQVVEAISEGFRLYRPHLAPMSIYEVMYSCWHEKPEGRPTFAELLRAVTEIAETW
In short: as §1

[6] = target: T6, CaMKIδ(h) (Homo sapiens, UniProt Q8IU85)
T6 construct: gene CAMK1D
In short: as §1

[7] = read-out: Residual activity (%) Spautin-1 5aa
[8] = read-out: Residual activity (%) 5as
[9] = read-out: Residual activity (%) 5at
[10] = read-out: Residual activity (%) 5ay

T4 sequence (Q16620 whole entry): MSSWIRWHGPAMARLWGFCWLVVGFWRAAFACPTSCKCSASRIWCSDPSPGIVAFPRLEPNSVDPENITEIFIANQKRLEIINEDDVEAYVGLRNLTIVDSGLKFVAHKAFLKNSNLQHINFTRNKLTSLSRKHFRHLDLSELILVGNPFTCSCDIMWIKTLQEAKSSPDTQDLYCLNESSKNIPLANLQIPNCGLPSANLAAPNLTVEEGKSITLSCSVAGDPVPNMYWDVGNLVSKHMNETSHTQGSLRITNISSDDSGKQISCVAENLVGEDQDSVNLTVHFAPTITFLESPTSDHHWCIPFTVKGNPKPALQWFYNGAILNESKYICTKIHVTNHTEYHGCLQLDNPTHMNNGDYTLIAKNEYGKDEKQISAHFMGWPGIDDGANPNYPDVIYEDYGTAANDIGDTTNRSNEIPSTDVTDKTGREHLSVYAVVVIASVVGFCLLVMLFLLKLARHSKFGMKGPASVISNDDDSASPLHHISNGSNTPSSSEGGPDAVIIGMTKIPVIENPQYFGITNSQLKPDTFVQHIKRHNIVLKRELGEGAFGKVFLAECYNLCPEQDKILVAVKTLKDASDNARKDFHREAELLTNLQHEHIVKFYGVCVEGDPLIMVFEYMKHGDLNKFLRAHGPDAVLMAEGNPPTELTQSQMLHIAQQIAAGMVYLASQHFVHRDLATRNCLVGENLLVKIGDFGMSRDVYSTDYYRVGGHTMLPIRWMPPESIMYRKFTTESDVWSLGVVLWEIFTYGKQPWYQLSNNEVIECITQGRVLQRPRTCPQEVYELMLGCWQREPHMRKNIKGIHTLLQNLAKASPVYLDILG
T6 sequence (Q8IU85 whole entry): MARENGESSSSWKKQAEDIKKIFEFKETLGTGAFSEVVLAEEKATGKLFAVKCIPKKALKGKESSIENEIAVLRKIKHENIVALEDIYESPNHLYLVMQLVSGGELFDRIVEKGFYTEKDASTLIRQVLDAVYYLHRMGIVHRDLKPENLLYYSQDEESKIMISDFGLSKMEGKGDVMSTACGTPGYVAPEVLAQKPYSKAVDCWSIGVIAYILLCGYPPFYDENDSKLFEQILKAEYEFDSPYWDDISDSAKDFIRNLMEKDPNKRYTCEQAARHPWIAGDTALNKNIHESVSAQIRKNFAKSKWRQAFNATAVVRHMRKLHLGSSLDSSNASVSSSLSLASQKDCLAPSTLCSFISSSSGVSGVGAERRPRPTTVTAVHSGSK
T2 sequence (Q9NYL2 whole entry): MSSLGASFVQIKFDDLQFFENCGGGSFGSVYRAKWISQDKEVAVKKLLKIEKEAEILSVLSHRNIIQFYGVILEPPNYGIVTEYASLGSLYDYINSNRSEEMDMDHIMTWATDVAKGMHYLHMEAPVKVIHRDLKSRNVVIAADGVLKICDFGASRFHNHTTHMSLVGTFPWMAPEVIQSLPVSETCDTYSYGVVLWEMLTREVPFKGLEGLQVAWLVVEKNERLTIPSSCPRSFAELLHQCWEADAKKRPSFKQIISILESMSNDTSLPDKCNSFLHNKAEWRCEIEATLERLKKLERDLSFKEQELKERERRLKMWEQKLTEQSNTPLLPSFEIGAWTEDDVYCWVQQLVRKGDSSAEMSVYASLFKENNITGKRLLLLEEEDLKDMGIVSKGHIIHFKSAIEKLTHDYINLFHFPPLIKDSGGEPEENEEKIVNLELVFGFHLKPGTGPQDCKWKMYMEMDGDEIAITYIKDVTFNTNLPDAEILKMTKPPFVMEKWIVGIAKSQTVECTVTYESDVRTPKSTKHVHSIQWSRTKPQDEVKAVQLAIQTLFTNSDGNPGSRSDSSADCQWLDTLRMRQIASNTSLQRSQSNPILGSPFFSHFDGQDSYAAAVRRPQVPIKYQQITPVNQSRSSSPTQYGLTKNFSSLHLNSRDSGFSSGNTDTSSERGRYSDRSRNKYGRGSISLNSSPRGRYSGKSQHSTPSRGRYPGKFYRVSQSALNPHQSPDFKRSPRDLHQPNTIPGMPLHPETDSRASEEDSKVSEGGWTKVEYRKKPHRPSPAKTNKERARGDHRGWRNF

Fc1ccc(CNc2ncnc3ccc(F)cc23)cc1 [5aa, 6-Fluoro-N-(4-fluorobenzyl)-4-Quinazolinamine] was tested, and the remaining activity at 10 µM [1, 7] was 79%, the remaining activity at 10 µM [2, 7] was 70% and the remaining activity at 10 µM [3, 7] was 71%. For the same molecule, the remaining activity at 10 µM [4, 7] was 87%, the remaining activity at 10 µM [5, 7] was 92% and the remaining activity at 10 µM [6, 7] was 91%.
Molecule Fc1ccc(CCNc2ncnc3ccc(F)cc23)cc1 [5as, 6-Fluoro-N-[2-(4-Fluorophenyl)Ethyl]-4-Quinazolinamine] has a remaining activity at 10 µM [1, 8] of 78%, a remaining activity at 10 µM [2, 8] of 61% and a remaining activity at 10 µM [3, 8] of 72%. It also gave a remaining activity at 10 µM [4, 8] of 81%, a remaining activity at 10 µM [5, 8] of 83% and a remaining activity at 10 µM [6, 8] of 90%.
With Fc1ccc2ncnc(NCCc3ccc(Cl)cc3)c2c1 [5at, N-[2-(4-Chlorophenyl)Ethyl]-6-Fluoro-4-Quinazolinamine] the remaining activity at 10 µM [1, 9] was 78%, the remaining activity at 10 µM [2, 9] was 72% and the remaining activity at 10 µM [3, 9] was 78%. The remaining activity at 10 µM [4, 9] was 81%, the remaining activity at 10 µM [5, 9] was 82% and the remaining activity at 10 µM [6, 9] was 92%.
COc1ccc2ncnc(Nc3cccc(F)c3)c2c1 [5ay, N-(3-Fluorophenyl)-6-Methoxy-4-Quinazolinamine] gave a remaining activity at 10 µM [1, 10] of 77%, a remaining activity at 10 µM [2, 10] of 61% and a remaining activity at 10 µM [3, 10] of 36%. For the same molecule, the remaining activity at 10 µM [4, 10] was 96%, the remaining activity at 10 µM [5, 10] was 85% and the remaining activity at 10 µM [6, 10] was 89%.

— paper PMC7827406, “Structure–Activity Relationship (SAR) Study of Spautin-1 to Entail the Discovery of Novel NEK4 Inhibitors” (International Journal of Molecular Sciences, 2021)
